{"source": "patent US20210032257A1", "about": "“(E)-1-(4-(DIMETHYLAMINO)BUT-2-ENOYL)PYRROLIDIN-3-YL 4-((3-ISOPROPYL-5-METHYLPYRAZOLO[1,5-A]PYRIMIDIN-7-YL)AMINO)PIPERIDINE-1-CARBOXYLATE FOR INHIBITING CDK7” (Eli Lilly and Company, priority 2017, published 2021)", "experiment_in_all_cases": "Biomarker study proliferation (CellTiter-Glo)", "assay_type_in_all_cases": "cell-based", "key": {"Raw264.7": {"system": "Raw264.7", "summary_of_the_method": "(§1)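 Profiling across cell lines annotated for ARID1A, KMT2C, KMT2D or RB1 alterations used CellTiter-Glo viability after 7 days' treatment. Responses were classed insensitive, cytostatic or cytotoxic using IC50 1 μM and 70% inhibition cut-offs.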"}, "HCC827": {"system": "HCC827", "summary_of_the_method": "as §1"}, "NCIH146": {"system": "NCIH146", "summary_of_the_method": "as §1"}, "MDAPCA2B": {"system": "MDAPCA2B", "summary_of_the_method": "as §1"}, "NCIH522": {"system": "NCIH522", "summary_of_the_method": "as §1"}, "TEK1": {"system": "TEK1", "summary_of_the_method": "as §1"}, "HT": {"system": "HT", "summary_of_the_method": "as §1"}, "SKMEL28": {"system": "SKMEL28", "summary_of_the_method": "as §1"}, "SiHa": {"system": "SiHa", "summary_of_the_method": "as §1"}, "EGL1": {"system": "EGL1", "summary_of_the_method": "as §1"}, "SNU1079": {"system": "SNU1079", "summary_of_the_method": "as §1"}, "CCRFCEM": {"system": "CCRFCEM", "summary_of_the_method": "as §1"}, "HCC2218": {"system": "HCC2218", "summary_of_the_method": "as §1"}, "NCIH1436": {"system": "NCIH1436", "summary_of_the_method": "as §1"}, "LN18": {"system": "LN18", "summary_of_the_method": "as §1"}, "HCC4006": {"system": "HCC4006", "summary_of_the_method": "as §1"}, "NCIH2122": {"system": "NCIH2122", "summary_of_the_method": "as §1"}, "NCIH2228": {"system": "NCIH2228", "summary_of_the_method": "as §1"}, "MDAMB468": {"system": "MDAMB468", "summary_of_the_method": "as §1"}, "[1]": {"conditions": "168 h, read-out: Anti-proliferation effect IC50"}, "[2]": {"conditions": "Homo sapiens, 168 h, read-out: Anti-proliferation effect IC50"}}}
{"smiles": "Cc1cc(NC2CCN(C(=O)O[C@H]3CCN(C(=O)/C=C/CN(C)C)C3)CC2)n2ncc(C(C)C)c2n1", "note": "[Example 1, [(3S)-1-[(E)-4-(dimethylamino)but-2-enoyl]pyrrolidin-3-yl] 4-[(3-isopropyl-5-methyl-pyrazolo[1,5-a]pyrimidin-7-yl)amino]piperidine-1-carboxylate]", "values": [{"measurement": "IC50", "setting": "Raw264.7; Mus musculus, RAW264.7, 168 h, read-out: Anti-proliferation effect IC50", "result": 0.355, "unit": "µM"}, {"measurement": "Anti-proliferation effect % Inh.", "setting": "Raw264.7; Raw264.7, 7 days", "result": 62, "unit": "%"}, {"measurement": "Anti-proliferation effect Outcome", "setting": "Raw264.7; Raw264.7, 7 days", "result": "Cytostatic (cytostatic (IC50<1 μM and % inhibition <70%))"}, {"measurement": "Anti-proliferation effect % Inh.", "setting": "HCC827; HCC827, LUNG, 7 days", "result": 69, "unit": "%"}, {"measurement": "Anti-proliferation effect Outcome", "setting": "HCC827; HCC827, LUNG, 7 days", "result": "Cytostatic (cytostatic (IC50<1 μM and % inhibition <70%))"}, {"measurement": "IC50", "setting": "HCC827; Homo sapiens, HCC827, 168 h, read-out: Anti-proliferation effect IC50", "result": 0.055, "unit": "µM"}, {"measurement": "IC50", "setting": "NCIH146; Homo sapiens, NCI-H146, 168 h, read-out: Anti-proliferation effect IC50", "result": 0.03, "unit": "µM"}, {"measurement": "Anti-proliferation effect % Inh.", "setting": "NCIH146; NCIH146, LUNG, 7 days", "result": 77, "unit": "%"}, {"measurement": "Anti-proliferation effect Outcome", "setting": "NCIH146; NCIH146, LUNG, 7 days", "result": "Cytotoxic (cytotoxic (IC50<1 μM and % inhibition ≥70%))"}, {"measurement": "IC50", "setting": "MDAPCA2B; MDA-PCa-2b, 168 h, read-out: Anti-proliferation effect IC50", "result": 6.27, "unit": "µM"}, {"measurement": "Anti-proliferation effect % Inh.", "setting": "MDAPCA2B; MDAPCA2B, PROSTATE, 7 days", "result": 17, "unit": "%"}, {"measurement": "Anti-proliferation effect Outcome", "setting": "MDAPCA2B; MDAPCA2B, PROSTATE, 7 days", "result": "Insensitive (insensitive (IC50≥1 μM))"}, {"measurement": "IC50", "setting": "NCIH522; Homo sapiens, NCI-H522, 168 h, read-out: Anti-proliferation effect IC50", "result": 0.107, "unit": "µM"}, {"measurement": "Anti-proliferation effect % Inh.", "setting": "NCIH522; NCIH522, LUNG, 7 days", "result": 50, "unit": "%"}, {"measurement": "Anti-proliferation effect Outcome", "setting": "NCIH522; NCIH522, LUNG, 7 days", "result": "Cytostatic (cytostatic (IC50<1 μM and % inhibition <70%))"}, {"measurement": "IC50", "setting": "TEK1; [1]", "result": 0.04, "unit": "µM"}, {"measurement": "Anti-proliferation effect % Inh.", "setting": "TEK1; TEK1, BILIARY, 7 days", "result": 87, "unit": "%"}, {"measurement": "Anti-proliferation effect Outcome", "setting": "TEK1; TEK1, BILIARY, 7 days", "result": "Cytotoxic (cytotoxic (IC50<1 μM and % inhibition ≥70%))"}, {"measurement": "Anti-proliferation effect % Inh.", "setting": "HT; BLOOD, 7 days", "result": 64, "unit": "%"}, {"measurement": "Anti-proliferation effect Outcome", "setting": "HT; BLOOD, 7 days", "result": "Cytostatic (cytostatic (IC50<1 μM and % inhibition <70%))"}, {"measurement": "IC50", "setting": "HT; [2]", "result": 0.131, "unit": "µM"}, {"measurement": "IC50", "setting": "SKMEL28; Homo sapiens, SK-MEL-28, 168 h, read-out: Anti-proliferation effect IC50", "result": 0.098, "unit": "µM"}, {"measurement": "Anti-proliferation effect % Inh.", "setting": "SKMEL28; SKMEL28, SKIN, 7 days", "result": 61, "unit": "%"}, {"measurement": "Anti-proliferation effect Outcome", "setting": "SKMEL28; SKMEL28, SKIN, 7 days", "result": "Cytostatic (cytostatic (IC50<1 μM and % inhibition <70%))"}, {"measurement": "Anti-proliferation effect % Inh.", "setting": "SiHa; CERVIX, 7 days", "result": 58, "unit": "%"}, {"measurement": "Anti-proliferation effect Outcome", "setting": "SiHa; ENDOMETRIUM, 7 days", "result": "Cytostatic (cytostatic (IC50<1 μM and % inhibition <70%))"}, {"measurement": "IC50", "setting": "SiHa; [2]", "result": 0.105, "unit": "µM"}, {"measurement": "IC50", "setting": "EGL1; [1]", "result": 0.041, "unit": "µM"}, {"measurement": "Anti-proliferation effect % Inh.", "setting": "EGL1; EGL1, 7 days", "result": 95, "unit": "%"}, {"measurement": "Anti-proliferation effect Outcome", "setting": "EGL1; EGL1, 7 days", "result": "Cytotoxic (cytotoxic (IC50<1 μM and % inhibition ≥70%))"}, {"measurement": "IC50", "setting": "SNU1079; [1]", "result": 0.038, "unit": "µM"}, {"measurement": "Anti-proliferation effect % Inh.", "setting": "SNU1079; SNU1079, BILIARY, 7 days", "result": 89, "unit": "%"}, {"measurement": "Anti-proliferation effect Outcome", "setting": "SNU1079; SNU1079, BILIARY, 7 days", "result": "Cytotoxic (cytotoxic (IC50<1 μM and % inhibition ≥70%))"}, {"measurement": "Anti-proliferation effect % Inh.", "setting": "CCRFCEM; CCRFCEM, BLOOD, 7 days", "result": 96, "unit": "%"}, {"measurement": "Anti-proliferation effect Outcome", "setting": "CCRFCEM; CCRFCEM, BLOOD, 7 days", "result": "Cytotoxic (cytotoxic (IC50<1 μM and % inhibition ≥70%))"}, {"measurement": "IC50", "setting": "CCRFCEM; Homo sapiens, CCRF-CEM, 168 h, read-out: Anti-proliferation effect IC50", "result": 0.04, "unit": "µM"}, {"measurement": "Anti-proliferation effect % Inh.", "setting": "HCC2218; HCC2218, BREAST, 7 days", "result": 41, "unit": "%"}, {"measurement": "Anti-proliferation effect Outcome", "setting": "HCC2218; HCC2218, BREAST, 7 days", "result": "Cytostatic (cytostatic (IC50<1 μM and % inhibition <70%))"}, {"measurement": "IC50", "setting": "HCC2218; Homo sapiens, HCC2218, 168 h, read-out: Anti-proliferation effect IC50", "result": 0.56, "unit": "µM"}, {"measurement": "IC50", "setting": "NCIH1436; Homo sapiens, NCI-H1436, 168 h, read-out: Anti-proliferation effect IC50", "result": 0.195, "unit": "µM"}, {"measurement": "Anti-proliferation effect % Inh.", "setting": "NCIH1436; NCIH1436, LUNG, 7 days", "result": 56, "unit": "%"}, {"measurement": "Anti-proliferation effect Outcome", "setting": "NCIH1436; NCIH1436, LUNG, 7 days", "result": "Cytostatic (cytostatic (IC50<1 μM and % inhibition <70%))"}, {"measurement": "IC50", "setting": "LN18; Homo sapiens, LN-18, 168 h, read-out: Anti-proliferation effect IC50", "result": 0.015, "unit": "µM"}, {"measurement": "Anti-proliferation effect % Inh.", "setting": "LN18; LN18, CNS, 7 days", "result": 91, "unit": "%"}, {"measurement": "Anti-proliferation effect Outcome", "setting": "LN18; LN18, CNS, 7 days", "result": "Cytotoxic (cytotoxic (IC50<1 μM and % inhibition ≥70%))"}, {"measurement": "Anti-proliferation effect % Inh.", "setting": "HCC4006; HCC4006, LUNG, 7 days", "result": 57, "unit": "%"}, {"measurement": "Anti-proliferation effect Outcome", "setting": "HCC4006; HCC4006, LUNG, 7 days", "result": "Cytostatic (cytostatic (IC50<1 μM and % inhibition <70%))"}, {"measurement": "IC50", "setting": "HCC4006; Homo sapiens, HCC4006, 168 h, read-out: Anti-proliferation effect IC50", "result": 0.028, "unit": "µM"}, {"measurement": "IC50", "setting": "NCIH2122; Homo sapiens, NCI-H2122, 168 h, read-out: Anti-proliferation effect IC50", "result": 0.078, "unit": "µM"}, {"measurement": "Anti-proliferation effect % Inh.", "setting": "NCIH2122; NCIH2122, LUNG, 7 days", "result": 85, "unit": "%"}, {"measurement": "Anti-proliferation effect Outcome", "setting": "NCIH2122; NCIH2122, LUNG, 7 days", "result": "Cytotoxic (cytotoxic (IC50<1 μM and % inhibition ≥70%))"}, {"measurement": "IC50", "setting": "NCIH2228; Homo sapiens, NCI-H2228, 168 h, read-out: Anti-proliferation effect IC50", "result": 0.276, "unit": "µM"}, {"measurement": "Anti-proliferation effect % Inh.", "setting": "NCIH2228; NCIH2228, LUNG, 7 days", "result": 57, "unit": "%"}, {"measurement": "Anti-proliferation effect Outcome", "setting": "NCIH2228; NCIH2228, LUNG, 7 days", "result": "Cytostatic (cytostatic (IC50<1 μM and % inhibition <70%))"}, {"measurement": "IC50", "setting": "MDAMB468; Homo sapiens, MDA-MB-468, 168 h, read-out: Anti-proliferation effect IC50", "result": 0.008, "unit": "µM"}, {"measurement": "Anti-proliferation effect % Inh.", "setting": "MDAMB468; MDAMB468, BREAST, 7 days", "result": 100, "unit": "%"}, {"measurement": "Anti-proliferation effect Outcome", "setting": "MDAMB468; MDAMB468, BREAST, 7 days", "result": "Cytotoxic (cytotoxic (IC50<1 μM and % inhibition ≥70%))"}]}
